The conditions of data set [1]: general statement; cited from earlier work.
For data set [2] the following is noted: for Increase in penetration relative to control: multiple of average control determination. The procedure:
Polyoxyethylene stearyl ethers, 3 wt. %
Polyoxypropylene fatty alcohol ethers, 3 wt. %
Deionized water, 94 wt. %
Further, in all cases, unless otherwise noted, the tests were carried out at 37° C. and results were compared to penetration data for the same material in the oil/water emulsion base. Moreover, all percentages of composition components recited are, unless otherwise indicated, weight percent (wt. %) and are based upon the total weight of the composition.
The test method is carried out as follows:
A. Prior to testing, rats are routinely acclimated to the laboratory environment for seven days and gross observations are made to ensure good health of the animals to be tested.
B. Female Sprague Dawley rats (190-240 gm) are selected for testing and identified by cage label and ear tag number.
C. Diffusion Cell Preparation.
1. An O-ring is placed on a standard Franz Diffusion Cell. A stir bar is placed in the receptor compartment. Each cell is filled with approximately 4.5 ml sterile physiologic saline (receptor compartments are calibrated to contain 5.0 ml).
2. The jacketed diffusion cells are maintained at 37° C.±1° (or alternatively desired temperature) using an external water bath and a circulating pump.
D. Skin Section Preparation and Mounting
1. Test animals are sacrificed by intraperitoneal injection of 0.4 ml/100 gm. body weight sodium pentobarital (1 gm/ml).
2. The backs are lightly shaved using electric hair clippers.
3. A section of skin, measuring approximately 8 cm long by 7 cm wide, is removed from the back of each rat using a No. 20 scalpel assuring that the skin section is free from subcutaneous fat.
4. A piece of the skin section is mounted over an O-ring on the diffusion cell, epidermal side facing up. The donor compartment is placed on top of the skin section making a complete seal over the skin. A clamp is used to secure the skin section in place.
5. Air bubbles that collect under the skin are removed by inverting the diffusion cell and tapping it gently. The receptor compartment is filled with sterile physiologic saline to 5.0 ml.
E. Application of Test Materials
1. Test and control materials are applied to the skin using s syringe or spatula. The material is spread evenly and completely over the exposed skin surface using the tip of the syringe/spatula.
1. An HPLC carousel is loaded with microvials. Springs and inserts are placed into the microvials.
2. Receptor compartments are sampled at desired time intervals using a microliter (μl) syringe. The sample (approximately 160 μl) is placed into the insert. The microvial is sealed with a plastic cap.
3. When multiple sampling is required, the receptor compartment is replenished with sterile physiologic saline to maintain a 5.0 ml volume.
Samples are analyzed using standard analytical techniques. The presence of test material in the samples is indicative of transdermal penetration.

Data set [3] in a line: Human skin (in vitro) transdermal penetration. It counts as in vitro ADME. The following applies: Table 4. An excerpt: The test procedure is as described for rat skin studies with the exception that normal excised human skin samples obtained from breast reduction surgery are utilized.
As shown by the results of Table 4, imidazole enhanced xylometazoline penetration through human skin 5.3 fold.

Data set [4] is described as follows: Pig skin (in vitro) transdermal penetration. Format: in vitro ADME, Yucatan miniature pig. On the procedure: The test procedure is as described for rat skin studies with the exception that excised pig skin samples from Yucatan miniature pigs are utilized.
To address this issue, in vitro skin penetration of tripelennamine (TPL) in 2 saturated aqueous solutions, was measured using pig skin in accordance with the Pig Skin (in vitro) procedure earlier outlined. One solution contained 0.5% IMI. The other solution served as an aqueous control (buffered with NaOH to the same pH as the IMI containing solution).
Since all skin sections are dermatomed to 380 microns, h is a constant. In each composition of Table 5, the vehicle was saturated with the pharmacologic agent. Therefore, the "leaving tendency", or the thermodynamic activity of the pharmacologic agent in the vehicle, remained unchanged (K is the same for both compositions). this means that D must increase in order to explain the 3-fold increase in transdermal penetration. This is indicative of a true enhancement effect of topically applied IMI. The results of Table 5, substantiate that IMI acts as a true skin penetration enhancer. […] This may be one reason why use of a transdermal penetration enhancing amount of a selected imidazole or imidazole derivative of the present invention, in conjunction with a pharmacologically active agent whose transdermal penetration is capable of being enhanced, affords the advantageous enhancement of penetration achieved by the present invention.

The conditions of data set [5]: cited from earlier work.
Where [6] appears, read: B + 1% drug + 0.5% IMI, Table 3.
[7] abbreviates: B + 5% TPL + 5% XYL, Table 3 Study I.
Setting [8] is: B + 5% TRP + 5% XYL, Table 3 Study II.

Structures can show the parent of a compound that is named as a salt. Where two headings read alike, the source gives them in different places.

Regarding `Cn1cc[n+](C)c1` [Compound Ia], in data set [1], the Heat stability entry was “unstable to heat”.
As to `Cc1cc(C(C)(C)C)cc(C)c1CC1=NCCN1` [XYL, XYLO[…], HCL, reference compound], the “Penetration enhanced by imidazole” value in data set [2] (1% drug with 0.5% imidazole, Table 3 Studies V and VI) amounted to 610%. The “24 hour penetration (total micrograms base)” value in data set [2] (setting [6]) is listed as 613 micrograms base; in data set [2] (setting [7]) it was 444 micrograms base; in data set [2] (setting [8]), 1053 micrograms base; in data set [2] (control: 1% of the drug alone in B, Table 3), 100 micrograms base; in data set [2] (control: 5% of the drug alone in B, Table 3) it was 544 micrograms base; in data set [3] (B + 2% XYL + 0.5% IMI) it was 203 micrograms base. Moreover, the “24 hour penetration (total micrograms base)” value in data set [3] (control: B + 2% XYL) worked out at 38 micrograms base. The “Penetration of XYL” value in data set [2] (combination of TPL and XYL vs XYL alone, Table 3 Study I) is reported as “remained fairly constant”. Further, in data set [2] (combination of TRP and XYL, Table 3 Study II), the “Increase in transdermal penetration” value is reported as 90%. Further, the “Increase in penetration relative to control” value in data set [2] (setting [6]) came out at 6.1; in data set [2] (setting [7]) it was 0.8; in data set [2] (setting [8]) it was 1.9; in data set [3] (multiple of average control determination, B + 2% XYL + 0.5% IMI), 5.3. In addition, the “Imidazole enhanced xylometazoline penetration through human skin” value in data set [3] (2% XYL with 0.5% imidazole) was 5.3 fold.
As for `CN(C)CCN(Cc1ccccc1)c1ccccn1` [TPL, TRIPELENNAMINE HCL, reference compound], the “24 hour penetration (total micrograms base)” value was 196 micrograms base in data set [2]; 132 micrograms base in data set [4] (aqueous control: saturated TPL/H2O, buffered with NaOH to the same pH, Table 5); 363 micrograms base in data set [4] (saturated TPL/H2O + 0.5% IMI, Table 5). For the same compound, the “Increase in TPL penetration” value in data set [2] is listed as 270%. In addition, in data set [2], the “Penetration of TPL enhanced by” value was found to be 1190%. Further, in data set [4], the “Increase in skin permeation of TPL” value was “approximately 3 fold”. In addition, the “Increase in penetration relative to control” value in data set [4] (multiple of average control determinations, saturated TPL/H2O + 0.5% IMI, Table 5) is given as 2.75. For the same compound, the values for the Skin irritation entry in data set [5] (IPM at 0.5%) and in data set [5] (IPM levels sufficient to enhance transdermal penetration) were “little or no skin irritation” and “generally are irritating to skin”, respectively.
As for `c1c[nH]cn1` [IMIDAZOLE, imidazole], the “24 hour penetration of tripelennamine HCl (total micrograms base)” value in data set [2] (2% TPL in B + 0.01% imidazole) is recorded as 208 micrograms base; in data set [2] (2% TPL in B + 0.1% imidazole), 413 micrograms base; in data set [2] (2% TPL in B + 1.0% imidazole) it was 662 micrograms base. In addition, in data set [2] (2% TPL in B, imidazole up to 1.0%, Table 1), the “TPL penetration increased as compared to the control” value is reported as “approximately 340%”. In addition, the “Increase in penetration relative to control” value in data set [2] (2% TPL in B + 0.01% imidazole) was found to be 1.1; in data set [2] (2% TPL in B + 0.1% imidazole), 2.1; in data set [2] (2% TPL in B + 1.0% imidazole) it was 3.4. For the same compound, in data set [4] (0.5% IMI in saturated aqueous TPL solution), the “Increase in skin permeation of TPL” value is recorded as 3 fold.
Regarding `Cn1ccn(C)c1=O` [compound IIa], the Heat stability entry in data set [1] is reported as “heat stable”.

Values taken from patent publication US5164406A, “Method for enhancing transdermal penetration and compositions useful therein” (priority 1989, dated 1992).
